These results are taken from patent US7803801B2, “Aminopyridine compounds having Syk inhibitory activity” (Japan Tobacco, Inc., priority 2005, dated 2010).

Counter-ions that a name gives are not always drawn.

The target in assay [1] is GST-Syk Full Protein (human) (Homo sapiens, UniProt P43405). Description: Syk kinase inhibition test (HTRF method). Type of assay: biochemical. The note with it: HTRF, 100 μM ATP, 30 min room temperature, average; read-out: sykHTRF ave IC50. In a few lines:
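HTRF read-out: after EDTA termination and 1 h with XL665-streptavidin and Eu-anti-phosphotyrosine, the 665/620 nm ratio was measured. The reaction ran 30 min at 20–25 °C with final 6.4 nM human GST-Syk, 250 nM biotinylated peptide, 100 μM ATP, pH 7.0 HEPES buffer, 2% DMSO.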
On the technique in general: TR-FRET usually uses a lanthanide donor and a delayed reading to cut background.

Assay [2] deals with cultured human mast cells. In words: Degranulation inhibition test using cultured human mast cells (IgE cross-linking, β-Hexosaminidase release). It counts as cell-based. The note with it: Mast cell; cultured human mast cells, anti-hIgE stimulation, β-Hexosaminidase index, average; read-out: human degranulation ave. IC50. The protocol: Degranulation Inhibition Test Using Cultured Human Mast Cells
(1) Separation of Hematopoietic Stem Cells;
After 10 to 60 mL of umbilical cord blood collected with heparin was diluted with an equivalent amount of buffer (0.5% BSA, 2 mM EDTA/PBS-), it was superposed on Ficoll-Paque (Amersham Pharmacia Biotech) (Ficoll/Blood (1:2)) and mononuclear leukocyte fraction was collected by centrifuging it at 400 G (1350 rpm) 4° C. for 30 minutes. After centrifugal washing (1500 rpm, 5 min, 4° C.×3) with buffer, the number of cells was counted and 0.1 mL of CD34 Progenitor Cell Isolation Kit (Miltenyi Biotec), Reagent A1 (Fc blocking) was added for 1×10^8 cells. After agitation, 0.1 mL of Reagent A2 (CD34 antibody-hapten) was added (final volume 0.5 mL/1×10^8 cells) and incubated at 9° C. for further 15 minutes after agitation. After centrifugal washing (1500 rpm, 5 min, 4° C.×3), it was resuspeded in a buffer (0.4 mL) and 0.1 mL of Reagent B (anti hapten antibody-microbeads) was added and agitated (final volume 0.5 mL/1×10^8 cells) and incubated at 9° C. for further 15 minutes. After centrifugal washing (1500 rpm, 5 min, 4° C.×2), it was resuspeded in a buffer (0.5 mL) and loaded on CS column (Miltenyi Biotec) set in MACS (MAgnetic Cell Sorting system; Miltenyi Biotec, Daiichi Pure Chemicals) and washed with 30 mL of buffer to remove CD34^− cells. The column was separated from MACS and eluted with 30 mL of buffer and CD34^+ cells bound to the column were collected and used as a hematopoietic stem cell population.
(2) Acquisition of Human Mast Cells by Long-Term Culturing of Hematopoietic Stem Cells;
The CD34^+ cells separated in (1) were resuspended in Iscove's Modified Dulbecco's Medium (IMDM, Gibco) containing human (rh)SCF (1 μg/mL, Peprotech), rhIL-6 (0.5 μg/mL, Peprotech), rhIL-3 (10 ng/mL, Peprotech), 1% Insulin-Transferrin (Gibco), 5×10^−5M 2-ME (Gibco), 0.1% BSA (Sigma) in a density of 1×10^6 cells/ml and disseminated on 24-well culture plate with a dose of 0.1 mL/well and 0.9 ml of IMDM (Methocult SF^BIT StemCell technology) containing 0.9% methyl cellulose was added and culturing was started. The above culture medium (excluding methyl cellulose) was added in a week and after that 100 μL/well of the above culture medium (further excluding IL-3) was added at an interval of every once a week so that cells were diluted to maintain 10^5 cells/mL/well order and cultured more than about 8 weeks and thereby human culture mast cells were obtained.
(3) Expression Enhancement of FcεRI and Inhibition Test IgE Cross-Linking Stimulating Degranulation;
rhIL-4 (final concentration 1 ng/mL, R & D) and Homo sapiens(h) IgE (final concentration 0.5 μg/mL, CHEMICON) were added to the obtained human culture mast cells, and they were incubated for 5 days to enhance the expression of FcεRI. After incubation, cells were collected and, after centrifugal washing (IMDM), they were disseminated on 96-well culture plate in 5×10^4 cells/80 μL/well.
10 μL of a compound 10-fold diluted with IMDM after dissolved in DMSO (DMSO final concentration 0.1%) was added and reacted at 37° C. for 10 minutes. Further, 10 μL of anti-hIgE Ab (CHEMICON) adjusted to 100 μg/mL (final concentration 10 μg/mL) was added and degranulation was caused by being stimulated at 37° C. for 30 minutes. After centrifugation, 50 μL/well of the supernatant was collected and stored at −40° C. untill the quantity of degranulation was measured. The measurement of quantity of degranulation was performed using enzymatic activity of β-Hexosaminidase contained in the granulates as an index. That is, an equivalent amount of p-nitrophenyl-N-acetyl-β-D-glucosaminide (1 mM) (containing 0.1% Triton X-100) which is a substrate of β-Hexosaminidase was added to 50 μL of the culture filtrate, and after reacted at 37° C. for 2 hours, the reaction was terminated by using 100 μL of Carbonate buffer (0.1M, pH 10). […]

Broadly, the IC50 is the concentration needed to halve the response being measured. As to `Cc1ccnc(Nc2cccc(-c3cnc([C@@H]4COC(=O)N4)s3)n2)c1` [Compound A-14, (S)-4-{5-[6-(4-methylpyridin-2-ylamino)pyridin-2-yl]thiazol-2-yl}oxazolidin-2-one], the values for the IC50 in assay [1] and in assay [2] were less than 100 nM and 100 to 1000 nM, respectively.

As for `Cc1ccnc(Nc2cccc(-c3cnc(N4CCC(CC(=O)O)CC4)s3)n2)c1` [Compound A-15, (1-{5-[6-(4-methylpyridin-2-ylamino)pyridin-2-yl]thiazol-2-yl}piperidin-4-yl)acetic acid dihydrochloride], the IC50 in assay [1] was less than 100 nM; in assay [2], 100 to 1000 nM.

With `Cc1ccnc(Nc2cccc(-c3cnc(N(C)C[C@H]4CC[C@H](C(=O)O)CC4)s3)n2)c1` [Compound A-16, trans-4-[(N-methyl-N-{5-[6-(4-methylpyridin-2-ylamino)pyridin-2-yl]thiazol-2-yl}amino)methyl]cyclohexanecarboxylic acid], the IC50 in assay [1] was less than 100 nM; in assay [2], 100 to 1000 nM.

As for `Cc1ccnc(Nc2cccc(-c3cnc(N4CCC(CCC(=O)O)CC4)s3)n2)c1` [Compound A-17, 3-(1-{5-[6-(4-methyl-pyridin-2-ylamino)pyridin-2-yl]thiazol-2-yl}piperidin-4-yl)propionic acid], the IC50 in assay [1] was less than 100 nM; in assay [2], 100 to 1000 nM.

For `CCC(=O)Nc1nc(C)c(-c2cccc(Nc3cc(C)ccn3)n2)s1` [Compound A-19, N-{4-methyl-5-[6-(4-methylpyridin-2-ylamino)pyridin-2-yl]thiazol-2-yl}propionamide], the IC50 in assay [1] was less than 100 nM; in assay [2] it was 100 to 1000 nM.

Consider `CC(=O)Nc1nc(C)c(-c2cccc(Nc3cc(C)ccn3)n2)s1` [Compound A-20, N-{4-methyl-5-[6-(4-methylpyridin-2-ylamino)pyridin-2-yl]thiazol-2-yl}acetamide], for which the IC50 in assay [1] is less than 100 nM; in assay [2], 100 to 1000 nM.

On to `CC(=O)Nc1nc(C)c(-c2cncc(Nc3cc(C)ccn3)n2)s1` [Compound A-21, N-{4-methyl-5-[6-(4-methylpyridin-2-ylamino)pyrazin-2-yl]thiazol-2-yl}acetamide], for which the IC50 in assay [1] was less than 100 nM; in assay [2], 100 to 1000 nM.

Take `COc1cc(Nc2cccc(-c3sc(NC(C)=O)nc3C)n2)ncn1` [Compound A-22]: the IC50 in assay [1] is 100 to 1000 nM; in assay [2], more than 1000 nM.

With `Cc1ccnc(Nc2cccc(-c3cncs3)n2)c1` [Compound A-24], the IC50 is 100 to 1000 nM in assay [1] and more than 1000 nM in assay [2].

As to `CC(=O)O[C@@H](C)c1ncc(-c2cccc(Nc3cc(C)ccn3)n2)s1` [Compound A-25, acetic acid(S)-1-{5-[6-(4-methylpyridin-2-ylamino)pyridin-2-yl]thiazol-2-yl}ethyl ester], the IC50 was less than 100 nM in assay [1] and 100 to 1000 nM in assay [2].

With `Cc1ccnc(Nc2cccc(-c3cnc([C@H](C)O)s3)n2)c1` [Compound A-26, (S)-1-{5-[6-(4-methylpyridin-2-ylamino)pyridin-2-yl]thiazol-2-yl}ethanol], the IC50 was less than 100 nM in assay [1] and 100 to 1000 nM in assay [2].

`CC(=O)c1ncc(-c2cccc(Nc3cc(C)ccn3)n2)s1` [Compound A-27, 1-{5-[6-(4-methylpyridin-2-ylamino)pyridin-2-yl]thiazol-2-yl}ethanone]: the IC50 in assay [1] is less than 100 nM; in assay [2], 100 to 1000 nM.

Turning to `CCOC(=O)c1ncc(-c2cccc(Nc3cc(C)ccn3)n2)s1` [Compound A-28, 5-[6-(4-methylpyridin-2-ylamino)pyridin-2-yl]thiazole-2-carboxylic acid ethyl ester], the IC50 was less than 100 nM in assay [1] and 100 to 1000 nM in assay [2].

Take `Cc1ccnc(Nc2cccc(-c3cnc(C(=O)NCCO)s3)n2)c1` [Compound A-29]: the IC50 in assay [1] and in assay [2] was 100 to 1000 nM throughout.

With `CC(=NO)c1ncc(-c2cccc(Nc3cc(C)ccn3)n2)s1` [Compound A-30, 1-{5-[6-(4-methylpyridin-2-ylamino)pyridin-2-yl]thiazol-2-yl}ethanone oxime], the concentration for half-maximal inhibition (IC50) in assay [1] is less than 100 nM; in assay [2] it was 100 to 1000 nM.

In the case of `Cc1ccnc(Nc2cccc(-c3cnc([C@H](C)NC(=O)C(C)C)s3)n2)c1` [Compound A-31], the IC50 in assay [1] and in assay [2] was 100 to 1000 nM in each case.

For the molecule `Cc1ccnc(Nc2cccc(-c3cnc([C@H](C)NC(=O)[C@H](C)O)s3)n2)c1` [Compound A-32], the IC50 in assay [1] and in assay [2] was 100 to 1000 nM in each case.

Consider `Cc1ccnc(Nc2cccc(-c3cnc([C@@H]4CCC(=O)O4)s3)n2)c1` [Compound A-33, (S)-5-{5-[6-(4-methylpyridin-2-ylamino)pyridin-2-yl]thiazol-2-yl}dihydrofuran-2-one], for which the IC50 in assay [1] was less than 100 nM; in assay [2], 100 to 1000 nM.

As to `Cc1ccnc(Nc2cccc(-c3cnc(C(=O)NC(C)(C)CO)s3)n2)c1` [Compound A-34], the IC50 in assay [1] was 100 to 1000 nM; in assay [2], more than 1000 nM.

Regarding `C/C(=N\OCCO)c1ncc(-c2cccc(Nc3cc(C)ccn3)n2)s1` [Compound A-35, 1-{5-[6-(4-methylpyridin-2-ylamino)pyridin-2-yl]thiazol-2-yl}ethanone 0-(2-hydroxyethyl)oxime], the results for the IC50 in assay [1] and in assay [2] were less than 100 nM and 100 to 1000 nM, respectively.

On to `Cc1ccnc(Nc2cccc(-c3cnc([C@@H](NC(=O)OC(C)(C)C)C(C)C)s3)n2)c1` [Compound A-36], for which the IC50 in assay [1] and in assay [2] was more than 1000 nM throughout.

For the molecule `Cc1ccnc(Nc2cccc(-c3cnc([C@@H](N)C(C)C)s3)n2)c1` [Compound A-37], the IC50 in assay [1] is 100 to 1000 nM; in assay [2], more than 1000 nM.

With `CC(=O)N[C@H](c1ncc(-c2cccc(Nc3cc(C)ccn3)n2)s1)C(C)C` [Compound A-38], the IC50 in assay [1] and in assay [2] was 100 to 1000 nM in each case.

Turning to `Cc1ccnc(Nc2cccc(-c3cnc([C@H](Cc4ccccc4)NC(=O)OC(C)(C)C)s3)n2)c1` [Compound A-39], the IC50 in assay [1] and in assay [2] was more than 1000 nM in each case.

For the molecule `Cc1ccnc(Nc2cccc(-c3cnc([C@@H](N)Cc4ccccc4)s3)n2)c1` [Compound A-40], the IC50 was 100 to 1000 nM in assay [1] and more than 1000 nM in assay [2].

For the molecule `CC(=O)N[C@@H](Cc1ccccc1)c1ncc(-c2cccc(Nc3cc(C)ccn3)n2)s1` [Compound A-41], the half-maximal inhibitory concentration (IC50) in assay [1] is 100 to 1000 nM; in assay [2] it was more than 1000 nM.

Regarding `Cc1ccnc(Nc2cccc(-c3cnc([C@@H]4CCCN4)s3)n2)c1` [Compound A-42], the results for the IC50 in assay [1] and in assay [2] were 100 to 1000 nM and more than 1000 nM, respectively.

`Cc1ccnc(Nc2cccc(-c3cnc([C@H](COCc4ccccc4)NC(=O)OC(C)(C)C)s3)n2)c1` [Compound A-43]: the IC50 in assay [1] and in assay [2] was more than 1000 nM in each case.

For `Cc1ccnc(Nc2cccc(-c3cnc([C@@H](N)COCc4ccccc4)s3)n2)c1` [Compound A-44], the IC50 in assay [1] and in assay [2] was more than 1000 nM in each case.

As for `CC(=O)N[C@@H](COCc1ccccc1)c1ncc(-c2cccc(Nc3cc(C)ccn3)n2)s1` [Compound A-45], the IC50 in assay [1] and in assay [2] was more than 1000 nM each time.
